# Measurements: patent publication US20150197492A1, “NOVEL INDENO[1,2-c]QUINOLIN-11-ONE DERIVATIVES, PREPARATION METHOD AND APPLICATION THEREOF” (National Defense Medical Center, priority 2014, published 2015)
# Experiments:
# Assay in all cases: cells
# Assay type in all cases: cell-based
# BT-549 = tested on: BT-549
# COLO 205 = tested on: COLO 205
# HCT-116 = tested on: HCT-116
# TK-10 = TK-10 (Renal Cancer), 10 μM, 48 hours
# U251 = settings: CNS Cancer U251
# SW-620 = tested on: SW-620
# PC-3 = tested on: PC-3
# SK-MEL-28 = tested on: SK-MEL-28
# NCI-H23 = tested on: NCI-H23
# HS 578T = tested on: HS 578T
# RPMI-8226 = tested on: RPMI-8226
# NCI-H460 = tested on: NCI-H460
# LOX IMVI = settings: Melanoma LOX IMV1
# NCI-H322M = tested on: NCI-H322M
# MDA-MB-435 = tested on: MDA-MB-435
# HL-60 (TB) = tested on: HL-60 (TB)
# SF-268 = tested on: SF-268
# OVCAR-4 = tested on: OVCAR-4
# HCC-2998 = tested on: HCC-2998
# SNB-75 = tested on: SNB-75
# A549/ATCC = tested on: A549/ATCC
# IGROV1 = tested on: IGROV1
# A498 = tested on: A498
# MDA-MB-468 = tested on: MDA-MB-468
# SK-OV-3 = tested on: SK-OV-3
# OVCAR-3 = tested on: OVCAR-3
# MOLT-4 = tested on: MOLT-4
# MDA-MB-231/ATCC = tested on: MDA-MB-231/ATCC
# UACC-62 = tested on: UACC-62
# HT29 = tested on: HT29
# SR = tested on: SR
# K-562 = tested on: K-562
# [1] = Homo sapiens, Colon Cancer COLO 205
# [2] = Homo sapiens, Colon Cancer HCT-116
# [3] = Homo sapiens, Colon Cancer SW-620
# [4] = Homo sapiens, Non-Small Cell Lung Cancer NCI-H23
# [5] = Homo sapiens, CNS Cancer SF-268
# [6] = Homo sapiens, Non-Small Cell Lung Cancer A549/ATCC
# [7] = Homo sapiens, Breast Cancer MDA-MB-231/ATCC
# [8] = Homo sapiens, K562, Leukemia K-562
compound,measurement,setting,value
"O=C1c2cc(Cl)ccc2-c2c(N3CCNCC3)nc3ccccc3c21 [SJ-10, 9-Chloro-6-(piperazin-1-yl)-11H-indeno[1,2-c]quinolin-11-one]",growth percentage,"BT-549; BT-549 (Breast Cancer), 10 μM, 48 hours",58.35%
same,TGI,BT-549; Breast Cancer BT-549,>100 µM
same,GI50,"BT-549; Homo sapiens, Breast Cancer BT-549",10.6 µM
same,CC50,"BT-549; Homo sapiens, Breast Cancer BT-549, read-out: LC50 (the source's name)",> 100 µM
same,growth percentage,"COLO 205; COLO 205 (Colon Cancer), 10 μM, 48 hours",-81.49%
same,TGI,COLO 205; Colon Cancer COLO 205,>100 µM
same,GI50,COLO 205; [1],12.2 µM
same,LC50 (50% lethal concentration),COLO 205; [1],> 100 µM
same,TGI,HCT-116; Colon Cancer HCT-116,>100 µM
same,growth percentage,"HCT-116; HCT-116 (Colon Cancer), 10 μM, 48 hours",-83.19%
same,GI50,HCT-116; [2],5.42 µM
same,LC50 (50% lethal concentration),HCT-116; [2],> 100 µM
same,growth percentage,TK-10,47.07%
same,TGI,U251,>100 µM
same,GI50,"U251; Homo sapiens, U-251",4.82 µM
same,LC50 (concentration killing 50% of cells),"U251; Homo sapiens, U-251",> 100 µM
same,TGI,SW-620; Colon Cancer SW-620,>100 µM
same,GI50,SW-620; [3],5.14 µM
same,LC50 (concentration killing 50% of cells),SW-620; [3],> 100 µM
same,growth percentage,"SW-620; SW-620 (Colon Cancer), 10 μM, 48 hours",-73.67%
same,GI50,"PC-3; Homo sapiens, Prostate Cancer PC-3",5.93 µM
same,CC50,"PC-3; Homo sapiens, Prostate Cancer PC-3, read-out: LC50 (the source's name)",> 100 µM
same,growth percentage,"PC-3; PC-3 (Prostate Cancer), 10 μM, 48 hours",-58.51%
same,TGI,PC-3; Prostate Cancer PC-3,>100 µM
same,GI50,"SK-MEL-28; Homo sapiens, Melanoma SK-MEL-28",> 100 µM
same,CC50,"SK-MEL-28; Homo sapiens, Melanoma SK-MEL-28, read-out: LC50 (the source's name)",> 100 µM
same,TGI,SK-MEL-28; Melanoma SK-MEL-28,>100 µM
same,growth percentage,"SK-MEL-28; SK-MEL-28 (Melanoma), 10 μM, 48 hours",-91.38%
same,GI50,NCI-H23; [4],6.65 µM
same,LC50,NCI-H23; [4],> 100 µM
same,growth percentage,"NCI-H23; NCI-H23 (Non-Small Cell Lung Cancer), 10 μM, 48 hours",49.19%
same,TGI,NCI-H23; Non-Small Cell Lung Cancer NCI-H23,>100 µM
same,TGI,HS 578T; Breast Cancer HS 578T,>100 µM
same,growth percentage,"HS 578T; HS 578T (Breast Cancer), 10 μM, 48 hours",60.88%
same,GI50,"HS 578T; Homo sapiens, Breast Cancer HS 578T",4.77 µM
same,CC50,"HS 578T; Homo sapiens, Breast Cancer HS 578T, read-out: LC50 (the source's name)",> 100 µM
same,GI50,"RPMI-8226; Homo sapiens, Leukemia RPMI-8226",7.48 µM
same,CC50,"RPMI-8226; Homo sapiens, Leukemia RPMI-8226, read-out: LC50 (the source's name)",> 100 µM
same,TGI,RPMI-8226; Leukemia RPMI-8226,>100 µM
same,growth percentage,"RPMI-8226; RPMI-8226 (Leukemia), 10 μM, 48 hours",-43.57%
same,GI50,"NCI-H460; Homo sapiens, Non-Small Cell Lung Cancer NCI-460",4.15 µM
same,CC50,"NCI-H460; Homo sapiens, Non-Small Cell Lung Cancer NCI-460, read-out: LC50 (the source's name)",> 100 µM
same,growth percentage,"NCI-H460; NCI-H460 (Non-Small Cell Lung Cancer), 10 μM, 48 hours",-66.36%
same,TGI,NCI-H460; Non-Small Cell Lung Cancer NCI-460,>100 µM
same,GI50,"LOX IMVI; Homo sapiens, LOX IMVI",4.74 µM
same,CC50,"LOX IMVI; Homo sapiens, LOX IMVI, read-out: LC50 (the source's name)",> 100 µM
same,TGI,LOX IMVI,>100 µM
same,GI50,"NCI-H322M; Homo sapiens, Non-Small Cell Lung Cancer NCI-H322M",5.62 µM
same,CC50,"NCI-H322M; Homo sapiens, Non-Small Cell Lung Cancer NCI-H322M, read-out: LC50 (the source's name)",> 100 µM
same,growth percentage,"NCI-H322M; NCI-H322M (Non-Small Cell Lung Cancer), 10 μM, 48 hours",35.89%
same,TGI,NCI-H322M; Non-Small Cell Lung Cancer NCI-H322M,>100 µM
same,GI50,"MDA-MB-435; Homo sapiens, Melanoma MDA-MB-435",7.01 µM
same,CC50,"MDA-MB-435; Homo sapiens, Melanoma MDA-MB-435, read-out: LC50 (the source's name)",> 100 µM
same,growth percentage,"MDA-MB-435; MDA-MB-435 (Melanoma), 10 μM, 48 hours",-6.57%
same,TGI,MDA-MB-435; Melanoma MDA-MB-435,>100 µM
same,growth percentage,"HL-60 (TB); HL-60 (TB) (Leukemia), 10 μM, 48 hours",-38.36%
same,GI50,"HL-60 (TB); Homo sapiens, Leukemia HL-60(TB)",36.9 µM
same,CC50,"HL-60 (TB); Homo sapiens, Leukemia HL-60(TB), read-out: LC50 (the source's name)",> 100 µM
same,TGI,HL-60 (TB); Leukemia HL-60(TB),>100 µM
same,TGI,SF-268; CNS Cancer SF-268,>100 µM
same,GI50,SF-268; [5],8.71 µM
same,LC50,SF-268; [5],> 100 µM
same,growth percentage,"SF-268; SF-268 (CNS Cancer), 10 μM, 48 hours",34.33%
same,GI50,"OVCAR-4; Homo sapiens, Ovarian Cancer OVCAR-4",6.39 µM
same,CC50,"OVCAR-4; Homo sapiens, Ovarian Cancer OVCAR-4, read-out: LC50 (the source's name)",> 100 µM
same,growth percentage,"OVCAR-4; OVCAR-4 (Ovarian Cancer), 10 μM, 48 hours",35.59%
same,TGI,OVCAR-4; Ovarian Cancer OVCAR-4,>100 µM
same,TGI,HCC-2998; Colon Cancer HCC-2998,>100 µM
same,growth percentage,"HCC-2998; HCC-2998 (Colon Cancer), 10 μM, 48 hours",-55.83%
same,GI50,"HCC-2998; Homo sapiens, Colon Cancer HCC-2998",30.9 µM
same,CC50,"HCC-2998; Homo sapiens, Colon Cancer HCC-2998, read-out: LC50 (the source's name)",> 100 µM
same,TGI,SNB-75; CNS Cancer SNB-75,>100 µM
same,GI50,"SNB-75; Homo sapiens, CNS Cancer SNB-75",4.53 µM
same,CC50,"SNB-75; Homo sapiens, CNS Cancer SNB-75, read-out: LC50 (the source's name)",> 100 µM
same,growth percentage,"SNB-75; SNB-75 (CNS Cancer), 10 μM, 48 hours",22.34%
same,growth percentage,"A549/ATCC; A549/ATCC (Non-Small Cell Lung Cancer), 10 μM, 48 hours",18.70%
same,GI50,A549/ATCC; [6],4.87 µM
same,LC50 (50% lethal concentration),A549/ATCC; [6],> 100 µM
same,TGI,A549/ATCC; Non-Small Cell Lung Cancer A549/ATCC,>100 µM
same,GI50,"IGROV1; Homo sapiens, IGROV-1, Ovarian Cancer IGROV1",5.94 µM
same,CC50,"IGROV1; Homo sapiens, IGROV-1, Ovarian Cancer IGROV1, read-out: LC50 (the source's name)",> 100 µM
same,growth percentage,"IGROV1; IGROV1 (Ovarian Cancer), 10 μM, 48 hours",3.23%
same,TGI,IGROV1; Ovarian Cancer IGROV1,>100 µM
same,growth percentage,"A498; A498 (Renal Cancer), 10 μM, 48 hours",59.79%
same,GI50,"A498; Homo sapiens, Renal Cancer A498",2.63 µM
same,CC50,"A498; Homo sapiens, Renal Cancer A498, read-out: LC50 (the source's name)",> 100 µM
same,TGI,A498; Renal Cancer A498,>100 µM
same,TGI,MDA-MB-468; Breast Cancer MDA-MB-468,>100 µM
same,GI50,"MDA-MB-468; Homo sapiens, Breast Cancer MDA-MB-468",4.42 µM
same,CC50,"MDA-MB-468; Homo sapiens, Breast Cancer MDA-MB-468, read-out: LC50 (the source's name)",> 100 µM
same,growth percentage,"MDA-MB-468; MDA-MB-468 (Breast Cancer), 10 μM, 48 hours",-35.66%
same,GI50,"SK-OV-3; Homo sapiens, Ovarian Cancer SK-OV-3",4.35 µM
same,CC50,"SK-OV-3; Homo sapiens, Ovarian Cancer SK-OV-3, read-out: LC50 (the source's name)",> 100 µM
same,TGI,SK-OV-3; Ovarian Cancer SK-OV-3,>100 µM
same,growth percentage,"SK-OV-3; SK-OV-3 (Ovarian Cancer), 10 μM, 48 hours",57.81%
same,GI50,"OVCAR-3; Homo sapiens, Ovarian Cancer OVCAR-3",12.8 µM
same,CC50,"OVCAR-3; Homo sapiens, Ovarian Cancer OVCAR-3, read-out: LC50 (the source's name)",> 100 µM
same,growth percentage,"OVCAR-3; OVCAR-3 (Ovarian Cancer), 10 μM, 48 hours",22.86%
same,TGI,OVCAR-3; Ovarian Cancer OVCAR-3,>100 µM
same,GI50,"MOLT-4; Homo sapiens, Leukemia MOLT-4",4.41 µM
same,LC50 (concentration killing 50% of cells),"MOLT-4; Homo sapiens, Leukemia MOLT-4",> 100 µM
same,TGI,MOLT-4; Leukemia MOLT-4,>100 µM
same,growth percentage,"MOLT-4; MOLT-4 (Leukemia), 10 μM, 48 hours",-43.22%
same,TGI,MDA-MB-231/ATCC; Breast Cancer MDA-MB-231/ATCC,>100 µM
same,GI50,MDA-MB-231/ATCC; [7],7.23 µM
same,LC50 (concentration giving 50% net cell kill),MDA-MB-231/ATCC; [7],> 100 µM
same,growth percentage,"MDA-MB-231/ATCC; MDA-MB-231/ATCC (Breast Cancer), 10 μM, 48 hours",-10.45%
same,GI50,"UACC-62; Homo sapiens, Melanoma UACC-62",4.38 µM
same,CC50,"UACC-62; Homo sapiens, Melanoma UACC-62, read-out: LC50 (the source's name)",> 100 µM
same,TGI,UACC-62; Melanoma UACC-62,>100 µM
same,growth percentage,"UACC-62; UACC-62 (Melanoma), 10 μM, 48 hours",-81.71%
same,TGI,HT29; Colon Cancer HT29,>100 µM
same,growth percentage,"HT29; HT29 (Colon Cancer), 10 μM, 48 hours",-80.89%
same,GI50,"HT29; Homo sapiens, HT-29, Colon Cancer HT29",7.84 µM
same,CC50,"HT29; Homo sapiens, HT-29, Colon Cancer HT29, read-out: LC50 (the source's name)",> 100 µM
same,GI50,"SR; Homo sapiens, Leukemia SR",3.09 µM
same,LC50 (50% lethal concentration),"SR; Homo sapiens, Leukemia SR",> 100 µM
same,TGI,SR; Leukemia SR,>100 µM
same,growth percentage,"SR; SR (Leukemia), 10 μM, 48 hours",-55.19%
same,GI50,K-562; [8],7.8 µM
same,"LC50 (lethal concentration, 50% cell kill)",K-562; [8],> 100 µM
same,growth percentage,"K-562; K-562 (Leukemia), 10 μM, 48 hours",-65.71%
same,TGI,K-562; Leukemia K-562,>100 µM
